Non-standard residues stand in square brackets, D forms with d. Residues, ends and D or L forms follow the SMILES beside them. NMeF = CN[C@@H](Cc1ccccc1)C(=O)O
Molecular target: T1, human NPFF2 (Homo sapiens, UniProt Q9Y5X5)
T1 construct: purchased Perkin Elmer; host or cells: CHO-K1 cell membranes
Assay: Competitive binding of 125I-1DMe to human NPFF2 receptor membranes
Settings: membranes of CHO-K1 cells overexpressing NPFF2, 0.1 nM radioligand, Cheng-Prusoff; mean ± SEM; SEM
Procedure: CHO-K1 cells expressing the GPR10 receptor (Thermo Fisher Scientific Inc., Waltham, MA, USA) were grown according to the manufacturer's instructions. Saturation and competitive binding experiments were performed according to the methods of Motulsky and Neubig. […] The experiments were performed on plated cells that were incubated for 60 min at 25°C. Non-specific binding was determined using 10^−5 M PrRP31. The binding assays involving human NPFF2 receptor membranes obtained from Perkin Elmer were performed as described in [18].
Data are presented as the means ± SEM. The competitive binding curves were plotted using GraphPad software (San Diego, CA, USA), and the best fits were compared for single-binding-site models (IC50 values were obtained from nonlinear regression analysis). Inhibition constants (Ki) were calculated from the IC50 values using the Cheng-Prusoff equation [23]. The concentration of the radioligand was 0.1 nM for cell membranes of CHO-K1 cells overexpressing NPFF2 and 0.03 nM for CHO-K1 cells overexpressing GPR10.

T1 sequence (Q9Y5X5 whole entry): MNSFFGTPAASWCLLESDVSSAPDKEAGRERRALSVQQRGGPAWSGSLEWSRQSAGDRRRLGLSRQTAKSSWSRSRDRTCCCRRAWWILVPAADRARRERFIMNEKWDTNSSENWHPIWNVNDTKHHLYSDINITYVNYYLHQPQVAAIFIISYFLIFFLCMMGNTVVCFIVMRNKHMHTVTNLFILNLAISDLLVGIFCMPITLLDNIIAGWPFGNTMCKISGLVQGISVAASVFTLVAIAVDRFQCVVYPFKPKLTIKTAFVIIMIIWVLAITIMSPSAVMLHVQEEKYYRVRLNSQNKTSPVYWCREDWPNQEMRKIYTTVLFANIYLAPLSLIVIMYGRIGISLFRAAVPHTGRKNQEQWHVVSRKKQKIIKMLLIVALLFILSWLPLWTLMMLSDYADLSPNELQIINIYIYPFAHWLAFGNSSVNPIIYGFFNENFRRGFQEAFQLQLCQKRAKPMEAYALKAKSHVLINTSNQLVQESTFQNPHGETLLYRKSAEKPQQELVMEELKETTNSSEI

SMILES: CC(C)C[C@H](NC(=O)[C@H](N)Cc1ccc(O)cc1)C(=O)N(C)[C@@H](Cc1ccccc1)C(=O)N[C@@H](CCC(N)=O)C(=O)N1CCC[C@H]1C(=O)N[C@@H](CCC(N)=O)C(=O)N[C@@H](CCCN=C(N)N)C(=O)N[C@@H](Cc1ccccc1)C(N)=O [1DMe, reference compound] (H-[dY]L[NMeF]QPQRF-NH2)
- Ki: 1.8 ± 0.54 nM

SMILES: CC[C@H](C)[C@H](NC(=O)CNC(=O)[C@H](CCCNC(=N)N)NC(=O)[C@H](CO)NC(=O)[C@H](C)NC(=O)[C@H](Cc1ccc(O)cc1)NC(=O)[C@H](Cc1c[nH]c2ccccc12)NC(=O)[C@H](C)NC(=O)[C@@H]1CCCN1C(=O)[C@H](CC(N)=O)NC(=O)[C@@H](NC(=O)[C@H](CC(=O)O)NC(=O)[C@@H]1CCCN1C(=O)[C@@H](NC(=O)[C@H](CCCNC(=N)N)NC(=O)[C@@H](NC(=O)[C@H](CCC(=O)O)NC(=O)[C@H](CCSC)NC(=O)[C@H](CO)NC(=O)[C@H](Cc1c[nH]cn1)NC(=O)[C@H](CCCNC(=N)N)NC(=O)[C@H](Cc1c[nH]cn1)NC(=O)[C@@H](NC(=O)[C@H](CCCNC(=N)N)NC(=O)[C@@H](N)CO)[C@@H](C)O)[C@@H](C)CC)[C@@H](C)O)[C@@H](C)CC)C(=O)N[C@@H](CCCNC(=N)N)C(=O)N1CCC[C@H]1C(=O)N[C@H](C(=O)NCC(=O)N[C@@H](CCCNC(=N)N)C(=O)N[C@@H](Cc1ccccc1)C(N)=O)C(C)C [human PrRP31, reference compound]
- Ki: 50 ± 24.3 nM

— PMC5562305, “Impact of novel palmitoylated prolactin-releasing peptide analogs on metabolic changes in mice with diet-induced obesity” (PLoS ONE, 2017)
